Results from US12503485B2, “Human aminosterol ENT-03 compounds, related compositions comprising the same, and methods of using the same” (Enterin, Inc., priority 2019, dated 2025).
Read-outs that look alike come from different tables or passages of the source.

How the values were obtained:
PTPN1/PTP1B = biological target: T1, PTPN1/PTP1B (Homo sapiens, UniProt P18031); assay: Phosphatase profiling PTPN1/PTP1B, 10-dose IC50, fluorescence; type: biochemical
T1 construct: The enzyme was the human truncated form (1-321), recombinantly produced in Escherichia coli; host or cells: Escherichia coli
T1 sequence (P18031 1-321): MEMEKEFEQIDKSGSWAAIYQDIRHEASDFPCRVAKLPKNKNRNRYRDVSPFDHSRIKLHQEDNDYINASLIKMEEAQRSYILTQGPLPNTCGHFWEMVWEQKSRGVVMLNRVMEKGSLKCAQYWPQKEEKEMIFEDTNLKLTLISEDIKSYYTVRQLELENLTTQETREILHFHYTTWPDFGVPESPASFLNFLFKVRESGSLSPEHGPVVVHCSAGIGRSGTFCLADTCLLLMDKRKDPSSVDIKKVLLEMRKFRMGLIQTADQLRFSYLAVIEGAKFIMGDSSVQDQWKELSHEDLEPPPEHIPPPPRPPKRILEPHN

PTPN12/PTP-PEST = biological target: T2, PTPN12/PTP-PEST (Homo sapiens, UniProt Q05209); assay: Phosphatase assay PTPN12/PTP-PEST; type: biochemical
T2 construct: purchased Recation Biology Inc

PTPN11/SHP2 = PTPN11/SHP2 (Homo sapiens, UniProt Q06124); assay: Phosphatase assay PTPN11/SHP2; type: biochemical; details: Table 2C; read-out: Compound IC50 (M) PTPN11/SHP2
PTPN11/SHP2-FL = biological target: T3, PTPN11/SHP2-FL (Homo sapiens, UniProt Q06124); assay: Phosphatase assay PTPN11/SHP2-FL with activating peptide; type: biochemical
T3 construct: aa 2-597, isoform 1 (canonical)); StrepII-TEV (N); His-tag (C); purchased Recation Biology Inc; host or cells: E. coli

[1] = biological target: T4, PP2A Alpha/PP2R1A Complex (Homo sapiens, UniProt P67775); assay: Phosphatase assay PP2A Alpha/PP2R1A Complex; type: biochemical
T4 construct: purchased Recation Biology Inc

[2] = Weight loss in C57bl/6 male mice, once weekly dosing; type: in vivo
[3] = tested on: transcriptomes of the stomach, jejunum and ileum; type: in vivo, mice
Method: Young (20 week) and aged (80 week) C57bl/6 male mice were administered ENT-03 (40 mg/kg) or vehicle (water) by oral gavage daily for 2 weeks. Over this period of time clinical observations were unremarkable as were the gross and microscopic examinations of the GI tract. The transcriptomes of the stomach, jejunum and ileum were analyzed by RNAseq technology. Comparative analyses of the transcripts from untreated animals identified numerous transcripts that differed in abundance between the corresponding tissues from old and young individuals. […] Thus, within these three distinct regions of the mouse GI tract, ageing is associated with changes in the transcriptome.
Statistical analysis of RNA-sequencing data was performed using R programming language. Transcripts with less than one read count per million reads in all samples of each tissue were removed. The raw count data for the samples were then normalised using trimmed mean of M-values normalisation and transformed with voom (Law et al., 2014), resulting in log 2-transformed counts per million with associated precision weights. […] Statistical comparisons were performed using linear modelling, as implemented in the Bioconductor package limma (Ritchie et al., 2015). Significance values (p-values) were adjusted for multiple testing using Benjamini-Hochberg procedure (Benjamini et al., 1995). For each comparison (e.g. group A versus group B), a positive log 2-transformed fold change indicates up-regulation in group A relative to group B.
To investigate the overlap between contrasts, the number of overlapping differentially expressed genes (defined using adjusted p-value <0.05) between all pairwise combinations of the comparisons performed were counted. For each comparison, the Jaccard index, defined as the intersection over the union, measures the similarity between the two contrasts under consideration. The p-value was calculated using a hypergeometric test taking into account the universe size under the assumption that the contrasts and genes are independent.

hAPP-J20 mice = assay: Morris water maze, hAPP-J20 Alzheimer's mouse model; type: in vivo
PS19 mice = assay: Morris water maze, PS19 tauopathy mouse model; type: in vivo; details: 2.5 mg/kg i.p. once per week for 6 weeks, vs vehicle
Xenopus leavis tadpole = assay: In vivo activity on Xenopus tadpole in water; details: 10 μg/ml in 500 ml distilled water, about 1 hour
Method: To assess the activity of ENT-05 in vivo, the compound was added to 500 ml of distilled water to a concentration of 10 μg/ml. A Xenopus leavis tadpole, premetamorphic, was placed into the solution. […] A second animal was placed in 500 ml of water, containing 10 μg/ml ENT-05, but also 50 mM NaCl. In this case, the animal survived. The animal was then transferred to spring water without either salt or ENT-05 and remained active over the following days.

[4] = Body weight of mice after i.p. deuterated ENT-03; type: in vivo
Text: The presence of the deuterium on the side chain likely slows the action of the 2-methylacyl-coenzyme A racemase on C-25, the subsequent action of the dehydrogenase that produces the 24,25-trans-unsaturated derivative by removing the deuterium atoms at C24 and C25, and the subsequent hydration and oxidation at the C24 bond catalyzed by the D-bifunctional protein. Instead, the metabolism of ENT-03D3 will begin with the oxidation at C24 by CYP46A1, yielding the following compound: […]

[5] = tested on: transcriptomes of the stomach, jejunum and ileum; type: in vivo; details: aged mice (78 weeks)
[6] = intraperitoneal 3, 5, 10 mg/kg once weekly over 2 weeks
[7] = intraperitoneal once weekly over 6 weeks
[8] = 2.5 mg/kg i.p. once per week for 6 weeks, vs vehicle

T4 sequence (P67775 whole entry): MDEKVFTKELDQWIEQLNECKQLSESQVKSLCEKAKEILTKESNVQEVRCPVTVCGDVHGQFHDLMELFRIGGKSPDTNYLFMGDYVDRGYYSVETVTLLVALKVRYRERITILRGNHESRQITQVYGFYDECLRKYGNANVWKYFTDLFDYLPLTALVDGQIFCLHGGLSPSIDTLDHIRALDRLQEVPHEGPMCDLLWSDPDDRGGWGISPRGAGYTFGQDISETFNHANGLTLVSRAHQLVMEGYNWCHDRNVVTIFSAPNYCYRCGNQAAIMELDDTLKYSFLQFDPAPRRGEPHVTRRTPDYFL
T4 sequence (P30153 whole entry partner): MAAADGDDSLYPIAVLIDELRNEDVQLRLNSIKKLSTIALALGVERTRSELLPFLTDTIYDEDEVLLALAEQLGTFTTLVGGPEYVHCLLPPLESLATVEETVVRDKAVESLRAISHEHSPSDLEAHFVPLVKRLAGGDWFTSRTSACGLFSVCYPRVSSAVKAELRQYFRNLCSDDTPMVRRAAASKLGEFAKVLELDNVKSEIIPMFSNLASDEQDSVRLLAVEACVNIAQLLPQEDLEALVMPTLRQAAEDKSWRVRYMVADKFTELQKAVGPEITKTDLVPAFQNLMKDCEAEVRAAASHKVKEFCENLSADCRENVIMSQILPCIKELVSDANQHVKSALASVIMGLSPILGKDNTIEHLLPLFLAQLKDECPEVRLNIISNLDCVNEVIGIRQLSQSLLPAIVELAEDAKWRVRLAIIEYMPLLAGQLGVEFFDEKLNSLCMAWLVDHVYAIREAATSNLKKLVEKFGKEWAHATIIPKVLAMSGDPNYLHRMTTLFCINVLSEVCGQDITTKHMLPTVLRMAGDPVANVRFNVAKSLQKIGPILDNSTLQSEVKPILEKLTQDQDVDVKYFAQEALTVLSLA
T2 sequence (Q05209 whole entry): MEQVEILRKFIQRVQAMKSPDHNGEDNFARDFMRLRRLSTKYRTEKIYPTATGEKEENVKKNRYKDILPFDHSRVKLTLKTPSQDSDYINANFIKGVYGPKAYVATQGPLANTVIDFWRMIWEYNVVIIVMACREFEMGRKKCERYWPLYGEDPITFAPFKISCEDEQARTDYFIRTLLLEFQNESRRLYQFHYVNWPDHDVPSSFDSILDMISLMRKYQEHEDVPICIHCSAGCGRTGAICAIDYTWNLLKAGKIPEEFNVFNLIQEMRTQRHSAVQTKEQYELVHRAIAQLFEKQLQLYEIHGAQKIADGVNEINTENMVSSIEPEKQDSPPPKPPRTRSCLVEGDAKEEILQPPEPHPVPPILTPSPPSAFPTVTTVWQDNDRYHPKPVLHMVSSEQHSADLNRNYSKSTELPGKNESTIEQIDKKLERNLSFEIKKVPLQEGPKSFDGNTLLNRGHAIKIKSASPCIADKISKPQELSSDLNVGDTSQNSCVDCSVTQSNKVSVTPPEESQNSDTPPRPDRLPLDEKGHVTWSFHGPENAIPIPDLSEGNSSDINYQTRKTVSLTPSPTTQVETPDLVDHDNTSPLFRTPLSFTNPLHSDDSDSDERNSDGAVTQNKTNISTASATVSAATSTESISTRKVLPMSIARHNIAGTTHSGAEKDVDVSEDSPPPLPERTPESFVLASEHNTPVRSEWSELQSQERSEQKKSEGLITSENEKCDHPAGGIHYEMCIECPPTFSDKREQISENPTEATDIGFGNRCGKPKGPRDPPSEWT

CC(C)[C@@H](CC[C@@H](C)[C@H]1CC[C@H]2[C@@H]3[C@H](O)C[C@H]4C[C@@H](NCCCNCCCCNCCCN)CC[C@]4(C)[C@H]3CC[C@]12C)OS(=O)(=O)O (single isomer, unassigned) [ENT-02, trodusquemine]
% Activity (PTPN1/PTP1B; Conc 1.00E−04 M): −0.16%
Slope (signal/min) (PTPN1/PTP1B; Conc 1.00E−04 M): −68 signal/min
% Activity (PTPN1/PTP1B; Conc 1.11E−05 M): 0.68%
Slope (signal/min) (PTPN1/PTP1B; Conc 1.11E−05 M): 292 signal/min
% Activity (PTPN1/PTP1B; Conc 1.23E−06 M): 86.43%
Slope (signal/min) (PTPN1/PTP1B; Conc 1.23E−06 M): 37260 signal/min
% Activity (PTPN1/PTP1B; Conc 1.37E−07 M): 93.11%
Slope (signal/min) (PTPN1/PTP1B; Conc 1.37E−07 M): 40137 signal/min
% Activity (PTPN1/PTP1B; Conc 1.52E−08 M): 102.11%
Slope (signal/min) (PTPN1/PTP1B; Conc 1.52E−08 M): 44021 signal/min
% Activity (PTPN1/PTP1B; Conc 3.33E−05 M): −1.02%
Slope (signal/min) (PTPN1/PTP1B; Conc 3.33E−05 M): −440 signal/min
% Activity (PTPN1/PTP1B; Conc 3.70E−06 M): 38.12%
Slope (signal/min) (PTPN1/PTP1B; Conc 3.70E−06 M): 16431 signal/min
% Activity (PTPN1/PTP1B; Conc 4.12E−07 M): 92.69%
Slope (signal/min) (PTPN1/PTP1B; Conc 4.12E−07 M): 39959 signal/min
% Activity (PTPN1/PTP1B; Conc 4.57E−08 M): 99.09%
Slope (signal/min) (PTPN1/PTP1B; Conc 4.57E−08 M): 42717 signal/min
% Activity (PTPN1/PTP1B; Conc 5.08E−09 M): 100.94%
Slope (signal/min) (PTPN1/PTP1B; Conc 5.08E−09 M): 43513 signal/min
HILLSLOPE (PTPN1/PTP1B; IC50 curve fit): −2.19
activity on PTPN12/PTP-PEST, in words (PTPN12/PTP-PEST): target
IC50 (PTPN11/SHP2): 3.75e-07 M
activity against full length PTPN11/SHP2, in words (PTPN11/SHP2-FL): active

CC(CCCC(C)C1CCC2C3C(O)CC4CC(NCCCNCCCCNCCCN)CCC4(C)C3CCC12C)C(=O)O (single isomer, unassigned; ent-03) [ENT-03, 3-β-Spermino-7α-hydroxy-5α-cholestanoic acid]
activity at PP2A alpha, in words [1]: inactive
IC50 ([1]; Table 2B, read-out: Compound IC50 (M) PP2A Alpha/PP2R1A Complex): > 0.0001 M
clinical appearance of treated animals [2, 6]: clinically normal
weight loss, in words [2, 6]: dose dependent weight loss
clinical appearance of treated animals [2, 7]: clinically normal
weight loss, in words [2, 7]: dose dependent weight loss
number of differentially expressed genes ([3]; ileum, treated aged mice): 1162 genes
number of differentially expressed genes ([3]; ileum, treated young mice): 80 genes
genes changed significantly in response to exposure ([3]; jejunum and ileum, both young and aged mice): no more than 2 genes
number of differentially expressed genes ([3]; jejunum, treated aged mice): 382 genes
number of differentially expressed genes ([3]; jejunum, treated young mice): 42 genes
Ageing genes complemented by ENT-03 (30 most significant) Stomach ([3]; stomach, aged mice, gene named in value): shadow of prion protein
genes down-regulated in ageing overlapping with genes up-regulated by treatment ([3]; stomach, old mice, P<0.0001 hypergeometric test): 37 genes
number of differentially expressed genes ([3]; stomach, treated aged mice, 40 mg/kg oral daily 2 weeks, p(adj)<0.05): 63 genes
number of differentially expressed genes ([3]; stomach, treated young (20 week) mice, 40 mg/kg oral daily 2 weeks, p(adj)<0.05): 13 genes
ageing genes further down regulated in the ageing direction by treatment ([3]; stomach, young mice): 12 genes
clinical observations and gross and microscopic examinations of the GI tract ([3]; young and aged C57bl/6 male mice, 40 mg/kg oral gavage daily 2 weeks): unremarkable
learning during the training phase (hAPP-J20 mice; [8]): improved
memory on the probe day (hAPP-J20 mice; [8]): improved
latency to find the hidden platform during the training phase (hAPP-J20 mice; 2.5 mg/kg/wk i.p. over 6 weeks): decreased
learning during the training phase (PS19 mice): improved
memory on the probe day (PS19 mice): improved
effect on tadpole (Xenopus leavis tadpole): No similar effect
effect on body weight, in words [4]: loss of weight
genes increased upon treatment that decreased in expression with ageing [5]: 36 genes
